± gives the standard deviation of the averaged measurements.
Tested on: HepaRG
Experiment: LDH release cytotoxicity, % of total lysis control; higher = more cytotoxic
Conditions: 48 h
Method in brief: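 Eight-point half-log series of test chemicals, the highest at 100 µM, were given in duplicate for 48 h to single-lot HepaRG cells on collagen I-coated 96-well plates in serum-free induction medium with 0.5% DMSO. A Tecan Safire read resorufin fluorescence from CytoTox-ONE as a measure of LDH in 50 µL spent medium, with 0.1% Triton X in total lysis wells. Percent cytotoxicity was normalized to on-plate vehicle and total lysis controls and averaged over the duplicates.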

Compound | LDH release cytotoxicity (0.03162 µM) | LDH release cytotoxicity (0.1 µM) | LDH release cytotoxicity (0.3162278 µM) | LDH release cytotoxicity (1 µM) | LDH release cytotoxicity (3.16228 µM) | LDH release cytotoxicity (10 µM) | LDH release cytotoxicity (31.6228 µM) | LDH release cytotoxicity (100 µM) | also measured
O=c1[nH]cnc2c1ncn2C1CCC(CO)O1 (configuration not stated) [2',3'-Dideoxyinosine] | -2.26 ± 0.4% | -1.91 ± 0.031% | -1.96 ± 1% | -1.29 ± 0.97% | -1.75 ± 0.0016% | -1.3 ± 0.057% | -1.11 ± 1.1% | -0.428 ± 0.43% | –
O=C(c1ccc(O)cc1O)c1ccc(O)cc1O [2,2',4,4'-Tetrahydroxybenzophenone] | – | -1.13 ± 1.1% | – | -1.52 ± 0.89% | -2.25 ± 0.71% | -1.76 ± 0.33% | 1.26 ± 0.54% | 35.3 ± 1.2% | LDH release cytotoxicity (0.031623 µM): -0.783 ± 0.28%; LDH release cytotoxicity (0.316228 µM): -1.37 ± 0.79%
NCCOCCOCCN [2,2'-[Ethane-1,2-diylbis(oxy)]diethanamine] | -0.945 ± 0.74% | -1.12 ± 0.47% | -0.214 ± 0.033% | 0.303 ± 0.8% | 2.6 ± 0.91% | 2.46 ± 0.46% | 1.93 ± 0.86% | 4 ± 0.68% | –
CC(C)C(=O)OCC(C)(C)C(OC(=O)C(C)C)C(C)C (configuration not stated) [2,2,4-Trimethyl-1,3-pentanediol diisobutyrate] | -1.97 ± 1.2% | -3.46 ± 0.69% | -3.48 ± 0.61% | -2.95 ± 0.15% | -3.05 ± 0.42% | -2.18 ± 0.16% | -2.05 ± 0.51% | 0.686 ± 0.88% | –
Oc1ccc(C(c2ccc(O)cc2)C(Cl)(Cl)Cl)cc1 [2,2-Bis(4-hydroxyphenyl)-1,1,1-trichloroethane] | – | – | – | – | – | – | – | – | LDH release cytotoxicity (0.0320971 µM): 1.05 ± 0.97%; LDH release cytotoxicity (0.1015 µM): 0.207 ± 0.19%; LDH release cytotoxicity (0.320971 µM): 0.656 ± 0.4%; LDH release cytotoxicity (1.015 µM): 1.23 ± 0.62%; LDH release cytotoxicity (3.2097118 µM): 0.563 ± 0.45%; LDH release cytotoxicity (10.15 µM): 0.192 ± 0.82%; LDH release cytotoxicity (32.0971 µM): 1.16 ± 0.45%; LDH release cytotoxicity (101.5 µM): 2.4 ± 0.33%
N#CC(Br)(Br)C(N)=O [2,2-Dibromo-3-nitrilopropionamide] | – | – | – | – | – | – | – | – | LDH release cytotoxicity (0.0314647 µM): -1.52 ± 0.18%; LDH release cytotoxicity (0.0995 µM): -0.658 ± 0.1%; LDH release cytotoxicity (0.3146466 µM): -0.437 ± 0.73%; LDH release cytotoxicity (0.995 µM): -0.589 ± 0.45%; LDH release cytotoxicity (3.14647 µM): 0.314 ± 0.39%; LDH release cytotoxicity (9.95 µM): 0.381 ± 0.73%; LDH release cytotoxicity (31.4647 µM): -0.137 ± 0.43%; LDH release cytotoxicity (99.5 µM): 1.42 ± 0.75%
Cc1ccc(C)c(O)c1C [2,3,6-Trimethylphenol] | -2.75 ± 0.2% | -1.45 ± 0.5% | -1.53 ± 0.21% | -1.64 ± 0.019% | -1.22 ± 0.35% | -0.829 ± 0.93% | -0.517 ± 0.35% | 0.375 ± 0.18% | –
c1ccc2occc2c1 [2,3-Benzofuran] | -0.572 ± 0.84% | -1.07 ± 0.4% | -0.829 ± 0.4% | -0.181 ± 0.71% | -1.1 ± 0.81% | 0.338 ± 0.67% | 2.32 ± 1.2% | 2.02 ± 0.38% | –
Cc1cccc(N)c1N [2,3-Diaminotoluene] | -0.0536 ± 0.59% | -0.722 ± 0.31% | 0.216 ± 0.21% | -0.468 ± 0.4% | -0.351 ± 0.98% | 0.016 ± 0.52% | -0.572 ± 0.99% | 0.619 ± 0.97% | –
Oc1cc(Cl)c(Cl)cc1Cl [2,4,5-Trichlorophenol] | -1.03 ± 1.1% | -1.29 ± 0.21% | -1.7 ± 1.3% | -1.77 ± 0.63% | -1.83 ± 0.36% | -1.75 ± 0.2% | -1.87 ± 1.3% | -0.358 ± 0.97% | –
Cc1cc(C)c(O)c(C)c1 [2,4,6-Trimethylphenol] | -0.941 ± 0.86% | -0.527 ± 0.093% | -0.0601 ± 1% | -1.16 ± 0.46% | -0.619 ± 0.33% | -0.296 ± 0.75% | 0.116 ± 0.41% | 0.371 ± 1.2% | –
CC(C)(C)c1cc(C(C)(C)C)c(O)c(C(C)(C)C)c1 [2,4,6-Tris(tert-butyl)phenol] | -0.34 ± 0.36% | -0.143 ± 0.55% | -0.16 ± 0.35% | -0.404 ± 0.24% | -0.476 ± 0.26% | 0.204 ± 1.6% | -0.0327 ± 1.8% | 0.75 ± 0.75% | –
CC(C)CC(C)(O)C#CC(C)(O)CC(C)C (configuration not stated) [2,4,7,9-Tetramethyl-5-decyne-4,7-diol] | -0.689 ± 0.26% | -0.678 ± 0.45% | -0.883 ± 0.019% | -1.4 ± 0.25% | -0.76 ± 0.5% | -0.333 ± 0.27% | 0.979 ± 0.2% | 2.91 ± 0.27% | –
CC(C)(c1ccccc1)c1ccc(O)c(C(C)(C)c2ccccc2)c1 [2,4-Bis(1-methyl-1-phenylethyl)phenol] | -0.358 ± 0.3% | -1.13 ± 0.14% | -0.577 ± 0.043% | -1.2 ± 1.5% | -1.41 ± 0.08% | -0.479 ± 0.49% | -0.0613 ± 0.39% | 0.487 ± 0.24% | –
CC(C)(C)c1ccc(O)c(C(C)(C)C)c1 [2,4-Di-tert-butylphenol] | -2.05 ± 0.42% | -1.71 ± 0.24% | -1.9 ± 1.1% | -2.07 ± 0.9% | -1.83 ± 0.043% | -1.53 ± 0.18% | -0.783 ± 0.87% | 0.8 ± 0.4% | –
CCC(C)(C)c1ccc(O)c(C(C)(C)CC)c1 [2,4-Di-tert-pentylphenol] | 0.622 ± 0.85% | -1.25 ± 0.82% | -0.993 ± 0.16% | -1.77 ± 0.046% | -1.69 ± 0.36% | -1.3 ± 0.39% | -1.19 ± 0.04% | 0.754 ± 0.54% | –
Cc1ccc(N)cc1N [2,4-Diaminotoluene] | – | -0.98 ± 2.2% | – | -2.17 ± 0.74% | -1.86 ± 1.7% | -1.56 ± 0.44% | -1.29 ± 0.18% | -0.394 ± 0.68% | LDH release cytotoxicity (0.031623 µM): -1.84 ± 0.43%; LDH release cytotoxicity (0.316228 µM): -1.49 ± 1.2%
Oc1ccc(Cl)cc1Cl [2,4-Dichlorophenol] | – | – | – | – | – | – | – | – | LDH release cytotoxicity (0.03305 µM): -0.867 ± 0.13%; LDH release cytotoxicity (0.1045 µM): -1.22 ± 0.36%; LDH release cytotoxicity (0.330458 µM): -1.99 ± 0.46%; LDH release cytotoxicity (1.045 µM): -1.67 ± 0.36%; LDH release cytotoxicity (3.30458 µM): -1.98 ± 0.042%; LDH release cytotoxicity (10.45 µM): -1.68 ± 0.079%; LDH release cytotoxicity (33.0458 µM): -2.38 ± 0.071%; LDH release cytotoxicity (104.5 µM): -0.904 ± 0.016%
O=C(O)COc1ccc(Cl)cc1Cl [2,4-Dichlorophenoxyacetic acid] | -2.81 ± 0.75% | -3.06 ± 0.11% | -3.35 ± 0.81% | -3.21 ± 0.55% | -3.24 ± 0.42% | -3.79 ± 0.69% | 48.3 ± 0.8% | 69.9 ± 2% | –

Source: the supplement of paper PMC7840683
